Reference: the NIST ThermoML archive (doi:10.1016/j.jct.2015.10.018)
Numbers after ± are expanded uncertainties.

What was measured:
[1] = 298.15 K; 101.33 kPa; Liquid; Vibrating tube method
[2] = refractive index (Na D-line) (dimensionless); settings: 298.15 K; 101.33 kPa; Liquid; Standard Abbe refractometry

mass density [1] [kg/m3]	refractive index [2]	Compound
1102.03 ± 1.1	1.51452 ± 0.00051	CCn1cc[n+](C)c1.N#CN=C=[N-] [1-ethyl-3-methylimidazolium dicyanamide]
773.88 ± 0.17	1.42356 ± 0.00033	C1CCCCC1 [cyclohexane]
679.57 ± 0.25	1.38529 ± 0.00037	CCCCCCC [heptane]

Compound	mass density [1] [kg/m3]	refractive index [2]
Cc1ccccc1 [toluene]	862.23 ± 0.13	1.49398 ± 0.00031
